{"source": "ChEMBL document CHEMBL1126511", "about": "“Protein damage caused by a synthetic enediyne core” (Bioorg Med Chem Lett, 1993)", "test_system": "HCT-116", "assay": "In vitro cytotoxicity against human colon carcinoma cell line HCT116", "format": "functional, cell-based", "note": "pIC50: −log10 of the molar value.", "data": [{"compound": "O=C1C2=CCC[C@@]1(O)C#C/C=C\\C#C[C@@H]2O", "values": [{"measurement": "pIC50", "value": 7.00}]}]}
